Experimental findings from publication PMC2885673, “Interaction of triosephosphate isomerase from the cell surface of Staphylococcus aureus and α-(1→3)-mannooligosaccharides derived from glucuronoxylomannan of Cryptococcus neoformans” (Microbiology, 2009) are described below.

For assay [1], the target named is T1, triosephosphate isomerase (TPI) from S. aureus (Staphylococcus aureus, UniProt Q2G030).
T1 construct: gene tpiA; native, purified from LiCl surface protein extract; 253 amino acids (homology model); amine-coupled to CM5 chip for SPR
T1 sequence (Q2G030 whole entry): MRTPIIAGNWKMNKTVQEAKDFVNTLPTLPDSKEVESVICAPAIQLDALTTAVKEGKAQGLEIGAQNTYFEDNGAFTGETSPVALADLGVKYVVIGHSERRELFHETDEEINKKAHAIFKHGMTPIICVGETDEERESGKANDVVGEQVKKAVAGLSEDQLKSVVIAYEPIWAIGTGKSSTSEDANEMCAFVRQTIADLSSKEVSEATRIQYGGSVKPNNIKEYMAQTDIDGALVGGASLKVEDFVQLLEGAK
The assay is described as follows: SPR (Biacore […]), TPI immobilized, heterogeneous ligand-parallel reaction fit. The assay is classed as binding. Conditions: HBS-EP pH 7.4, 150 mM NaCl, 3 mM EDTA; second site of a two-site fit (stronger site).

Assay [2] deals with T1, triosephosphate isomerase (TPI) from S. aureus. Put plainly: coupled NADH / glycerol-3-phosphate dehydrogenase assay, A340. It counts as biochemical. To be noted: 0.45 mM DL-glyceraldehyde 3-phosphate; S. aureus surface protein extract per the assay description.

Take `OC[C@H]1O[C@H](O[C@@H]2[C@H](O)[C@@H](O[C@@H]3[C@H](O)[C@@H](O[C@@H]4[C@H](O)[C@@H](O[C@H]5[C@H](O)[C@@H](CO)OC(O)[C@H]5O)O[C@H](CO)[C@H]4O)O[C@H](CO)[C@H]3O)O[C@H](CO)[C@H]2O)[C@@H](O)[C@@H](O)[C@@H]1O` (stereo partly shown) [M5, mannopentaose]: the “Heterogeneous ligand-parallel reaction / Kd2” value in assay [1] turned out to be 18.6 µM. The “inhibition of TPI activity at 100 μM” value in assay [2] is “dose-dependent inhibition was observed with mannotriose, mannotetraose and mannopentaose”.
In the case of `OC[C@H]1O[C@H](O[C@@H]2[C@H](O)[C@@H](O[C@H]3[C@H](O)[C@@H](CO)OC(O)[C@H]3O)O[C@H](CO)[C@H]2O)[C@@H](O)[C@@H](O)[C@@H]1O` (stereo partly shown) [M3, mannotriose], the “Heterogeneous ligand-parallel reaction / Kd2” value in assay [1] was determined as 124 µM. For the same compound, in assay [2], the “inhibition of TPI activity at 100 μM” value was “dose-dependent inhibition was observed with mannotriose, mannotetraose and mannopentaose”.
As to `OC[C@H]1O[C@H](O[C@@H]2[C@H](O)[C@@H](O[C@@H]3[C@H](O)[C@@H](O[C@H]4[C@H](O)[C@@H](CO)OC(O)[C@H]4O)O[C@H](CO)[C@H]3O)O[C@H](CO)[C@H]2O)[C@@H](O)[C@@H](O)[C@@H]1O` (stereo partly shown) [M4, mannotetraose], in assay [1], the “Heterogeneous ligand-parallel reaction / Kd2” value is 0.0146 µM. Besides, the “inhibition of TPI activity at 100 μM” value in assay [2] was “dose-dependent inhibition was observed with mannotriose, mannotetraose and mannopentaose”.
For `OC[C@H]1O[C@H](O[C@H]2[C@H](O)[C@@H](CO)OC(O)[C@H]2O)[C@@H](O)[C@@H](O)[C@@H]1O` (stereo partly shown) [M2, mannobiose], the “Heterogeneous ligand-parallel reaction / Kd2” value in assay [1] is 5.37 µM.
